EP2201946A1, “PAI-1 PRODUCTION INHIBITOR” (Institute of Medicinal Molecular Design, Inc., priority 2007, dated 2009)

How the values were obtained:
[1] = tested on: TGF-β induced PAI-1 production; assay: TGF-β induced PAI-1 production in HepG2 cells (Human Serpin E1/PAI-1 DuoSet); type: cell-based; details: Compound Concentration : 1μM, TGF-β1 1ng/mL, 24 hours
Procedure: HepG2 cells were seeded on a 96-well culture plate by 2x10^4 cells/well, and were incubated for 24 hours in the MEM medium containing 1% NEAA (Non-Essential Amino Acids), 1mM pyruvate, and 10% FBS. Then, the medium was changed to a MEM medium containing 1% NEAA, 1mM pyruvate and 1% FBS, and the cells were further incubated for 24 hours. Subsequently, after the medium was changed to a MEM medium containing 1% NEAA, 1mM pyruvate and 1% FBS, and then the cells were treated with the test substances (final concentration: 1 µM or 0.1 µM) for one hour, TGF-β1 (final concentration.1ng/mL) was added and the cells were further incubated for 24 hours. As controls, a culture solution added TGF-β1 only and a culture solution cultured without neither the test substances nor TGF-β1 were prepared. After the incubation, the PAI-1 amount was measured using Human Serpin E1/PAI-1 DuoSet (R&D Systems). The PAI-1 amount when treated with TGF-β1 only being "100%", and the PAI-1 amount when treated without neither the test substances nor TGF-β1 being "0%", the PAI-1 inhibition ratios of each test substance were calculated. IC50 of the compound (2) was about 50 nM.

[2] = tested on: TGF-β induced PAI-1 production; assay: TGF-β induced PAI-1 production in HT1080 cells (Western blotting); type: cell-based; details: TGF-β1 10 ng/mL, 6-hours incubation
Procedure: After incubating HT1080 cells for 48 hours in the MEM medium containing 10%FBS (Fetal Bovine Serum), the medium was changed to a MEM medium containing 1% FBS, and TGF-β1 (final concentration: 10 ng/mL) only, or TGF-β1 (final concentration: 10 ng/mL) and the test substances were added and incubated. As a control, a culture solution without neither TGF-β1 nor the test substances was prepared. After 6-hours incubation, the culture fluids were collected, and the PAI-1 amounts in the culture fluids were measured by the Western blotting. The PAI-1 amount when TGF-β1 only was added being "100%," and the PAI-1 amount in the control being "0%," PAI-1 I amounts at each concentration of the test substances (PAI-1 inhibition ratios) were calculated, and the concentrations of the compounds, which inhibited PAI-1 production to 50% (IC50) in amount, were obtained.

[3] = tested on: Chronic Obstructive Pulmonary Disease (COPD) model; assay: Collagen accumulation in alveoli of guinea pigs exposed to cigarette smoke (Masson-trichrome, image analysis); type: in vivo; details: smoke of 40 cigarettes a day for 25 days, oral once a day for 25 days, compound (1) 30 or 100 mg/kg/day, prednisolone 10 mg/kg/day (Fig. 2)
Procedure: Using the smoking exposure system (INH06-CIG01A, MIPS Inc.), 6-week old guinea pigs (Std: male Hartley, Japan SLC, Inc.) were exposed to smoke of 40 cigarettes (Peace (Registered Trademark), Japan Tobacco, Inc.) a day (20 cigarettes twice) for 25 continuous days (Chronic Obstructive Pulmonary Disease (COPD) model group: Control group: n=10). To theseguinea pigs, from the day of exposure to the smoke of tobacco, the compound (1) (30 mg/kg/day or 100 mg/kg/day) or prednisolone (10 mg/kg/day) was continuously administered orally once a day for 25 days (Compound (1) 30 mg administered group: n=5, Compound (1) 100 mg administered group: n=5, Prednisolone administered group: n=5). Furthermore, as a normal group, guinea pigs (n=5) exposed to air without the administration of the compound (1) and prednisolone were prepared. On the following day of the last exposure, after preparing paraffin sections in the lungs of each guinea pig, collagen was stained by the Masson-trichrome method, and the accumulations of collagen in the alveoli were measured by the area rate with the image analysis. […] Next, the above paraffin section was stained by the immunostaining method using an anti PAI-1 antibody (PAI-1 H-135; Santa Cruz; 250-fold dilution), and the ratio of PAI-1 expression cells to the total cell numbers infiltrated in the lung was measured. […]

| IC50 [2] [nM] | Structure (SMILES) | Inhibition Ratio (%) [1] [%] | accumulation of collagen in the alveoli (area rate) [3] |
| --- | --- | --- | --- |
| 83 | O=C(Nc1cc(C(F)(F)F)ccc1C(F)(F)F)c1cc(Br)ccc1O [(3)] | >90 |  |
|  | C[C@]12C=CC(=O)C=C1CC[C@@H]1[C@@H]2[C@@H](O)C[C@@]2(C)[C@H]1CC[C@]2(O)C(=O)CO [prednisolone] |  | not able to inhibit the accumulation of collagen |
